Values joined by “and” are separate entries in the source; they are usually repeats but may differ in a detail not shown here. Identical values can stand only once. ± gives the expanded uncertainty stated by the source.
c1ccc2cc3ccccc3cc2c1 [anthracene]
Crystal
Conditions | vapor or sublimation pressure
339.25 K | 0.000104 ± 4.3e-05 kPa
348.35 K | 0.000289 ± 5.1e-05 kPa
360.45 K | 0.000978 ± 9.3e-05 kPa
365.66 K | 0.00158 ± 0.00027 kPa
373.95 K | 0.00311 ± 0.00062 kPa
376.95 K | 0.00358 ± 0.00071 kPa
379.55 K | 0.00416 ± 0.00086 kPa
386.45 K | 0.00813 ± 0.0019 kPa
389.05 K | 0.00875 ± 0.002 kPa and 0.00962 ± 0.0023 kPa
392.95 K | 0.01486 ± 0.0039 kPa
393.75 K | 0.01211 ± 0.0032 kPa and 0.01243 ± 0.0032 kPa
398.05 K | 0.01765 ± 0.0045 kPa
398.55 K | 0.01813 ± 0.0046 kPa and 0.0185 ± 0.0047 kPa

CC(=O)[CH-]C(C)=O.CC(=O)[CH-]C(C)=O.[Cu+2] [bis(2,4-pentanedionato-O,O')copper]
Crystal
Conditions | vapor or sublimation pressure [kPa]
367.65 K | 2.2e-05
372.42 K | 3.9e-05 ± 5e-05
376.95 K | 6.8e-05 ± 5e-05
381.83 K | 0.00011 ± 5e-05
386.45 K | 0.000172 ± 0.00014
388.98 K | 0.000201 ± 0.00014
395.55 K | 0.000398 ± 0.00015
398.5 K | 0.000601 ± 0.00015
400.64 K | 0.000705 ± 0.00015
403.26 K | 0.000875 ± 0.00017
405.05 K | 0.00118 ± 0.00019
414.35 K | 0.00257 ± 0.00026
417.53 K | 0.00387 ± 0.00035
423.85 K | 0.00479 ± 0.00043
433.65 K | 0.00927 ± 0.0008
442.85 K | 0.0199 ± 0.0013

c1cc2ccc3cccc4ccc(c1)c2c34 [pyrene]
Crystal 1
Conditions | vapor or sublimation pressure [kPa]
341.45 K | 7.5e-05 ± 4.1e-05
351.05 K | 0.000171 ± 4.5e-05
369.85 K | 0.000882 ± 0.0001
373.95 K | 0.00147 ± 0.00025
379.55 K | 0.00197 ± 0.00037
383.95 K | 0.00472 ± 0.00099
389.05 K | 0.00539 ± 0.0011
392.95 K | 0.00846 ± 0.0019
398.55 K | 0.01067 ± 0.0025
402.05 K | 0.01662 ± 0.0042
408.05 K | 0.02731 ± 0.0073
